Assay results from ChEMBL document CHEMBL1201862, “PubChem BioAssay data set” (2004).
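Values below derive from 48-hour exposures of cells grown in 96-well plates, with endpoints linearly interpolated between the two concentrations bracketing the appropriate inhibition level. Here, GI50 denotes the concentration required for 50% inhibition of growth.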 Calls of active or inactive are those of the source. No stated cut-off is given here; in the data, active = GI50 up to about 1.1 µM and inactive = higher.

Assays:
Assay in all cases: NCI anticancer screen, dose series, 48 h
BT-549 = system: BT-549
CAKI-1 = system: CAKI-1
HCT-116 = system: HCT-116
M14 = system: M14
OVCAR-5 = system: OVCAR-5
SF-539 = system: SF-539
SNB-19 = system: SNB-19
SNB-75 = system: SNB-75
UO-31 = system: UO-31

Measured: GI50

COc1cccc2c1[C@H](OC)[C@]13O[C@@]1(C2=O)[C@H](O)[C@H](C)[C@@](O)(C(=O)[C@@H]1O[C@H]1C)[C@@H]3O
active: BT-549 0.289 µM | CAKI-1 0.273 µM | HCT-116 0.318 µM | M14 0.221 µM | OVCAR-5 0.297 µM | SF-539 0.271 µM | SNB-19 0.286 µM | SNB-75 0.233 µM | UO-31 0.249 µM
